The record followed here is the Kinase Knowledgebase extract (Sharma et al. 2016).

The target of assay [1] is EGFR (human) (UniProt P00533).
Assay [2] addresses EGFR (human) (UniProt P00533). The following applies: geo.
The target of assay [3] is EGFR (human) (UniProt P00533). The following applies: pc-9.
The target of assay [4] is EGFR (human) (UniProt P00533). To be noted: geo. The source holds these as a separate data set.
The target of assay [5] is EGFR (human) (UniProt P00533). The source holds these as a separate data set.
Assay [6] deals with EGFR (human) (UniProt P00533). The following applies: A431.
For assay [7], the target named is EGFR (human) (UniProt P00533). To be noted: A431 epidermoid carcinoma.
Assay [8] concerns the target PIK3CD (Human), O00329 [Inhibition of PIK3CG Kinase Activity]. In words: Enzyme Assay.
Assay [9] deals with MAPK14 (human) (UniProt Q16539). Briefly: Enzyme Assay.
The target of assay [10] is EGFR (human), P00533 [L861Q].
Assay [11] concerns the target EGFR (human), P00533 [L858R].
Assay [12] addresses EGFR (human), P00533 [G719C]. The following applies: a375.
In assay [13] the target is EGFR (human), P00533 [E746-A750del]. To be noted: a375.
The target in assay [14] is EGFR (human), P00533 [WT].
In assay [15] the target is EGFR (human) (UniProt P00533). This is another data set of the same source.
The target in assay [16] is ROCK2 (human) (UniProt O75116). In words: Assessment of ROCK2 Kinase Activity using Luciferin-Luciferase Assay.
Assay [17] deals with ROCK2 (human) (UniProt O75116). In words: Assessment of ROCK2 Kinase Activity using IMAP Assay.
In assay [18] the target is MAPK14 (human) (UniProt Q16539). Briefly: p38 --- IL-1 Inhibition (whole blood cells).
Assay [19] addresses MAPK14 (UniProt Q16539). In words: p38-mediated EGFR Peptide Phosphorylation Inhibition.
Assay [20] has as its target CDK2 (UniProt P24941). Briefly: Enzyme Assay.
In assay [21] the target is CDK2 (UniProt P24941). In words: Enzyme Assay. The source holds these as a separate data set.
Another assay addresses PIK3CG;PIK3CA (human) (UniProt P48736). Briefly: Inhibition of PIK3CG/PIK3CA Kinase Activity.
Assay [22] deals with EGFR (human), P00533 [WT]. This is another data set of the same source.
Assay [23] deals with EGFR (human) (UniProt P00533). The following applies: A431; concentration not given here.
The target of assay [24] is EGFR (Human), P00533 [T790M/L858R].
Assay [25] addresses EGFR (human) (UniProt P00533). The following applies: a431.
Assay [26] deals with CDK2 (human) (UniProt P24941). Briefly: Enzyme Assay.
The target of assay [27] is CDK2 (human) (UniProt P24941). In words: Enzyme Assay. The source holds these as a separate data set.
Assay [28] deals with EGFR (human) (UniProt P00533). Briefly: Assessment of EGFR Kinase Activity.
The target of assay [29] is CDK2 (UniProt P24941). In words: Enzyme Assay. The source holds these as a separate data set.
The next assay has as its system MAPK14 (rat). Briefly: p38-alpha Inhibition (Collagen-Induced Arthritis).
A further assay deals with PIK3CA (human) (UniProt P42336). Briefly: Enzyme Assay.
The next assay has as its target PIK3CB (Human) (UniProt P42338). In words: Enzyme Assay.
Another assay addresses PIK3CG (human) (UniProt P48736). In words: Enzyme Assay.
In assay [30] the target is CDK2 (human) (UniProt P24941). In words: Enzyme Assay. This is another data set of the same source.
Assay [31] has as its target CDK2 (human) (UniProt P24941). Briefly: Enzyme Assay. This is another data set of the same source.
For assay [32], the target named is MAPK14 (UniProt Q16539). In words: p38 Inhibition (Phosphorylation of EGF Receptor Peptide).
MAPK14, sequence (Q16539 whole entry, looked up): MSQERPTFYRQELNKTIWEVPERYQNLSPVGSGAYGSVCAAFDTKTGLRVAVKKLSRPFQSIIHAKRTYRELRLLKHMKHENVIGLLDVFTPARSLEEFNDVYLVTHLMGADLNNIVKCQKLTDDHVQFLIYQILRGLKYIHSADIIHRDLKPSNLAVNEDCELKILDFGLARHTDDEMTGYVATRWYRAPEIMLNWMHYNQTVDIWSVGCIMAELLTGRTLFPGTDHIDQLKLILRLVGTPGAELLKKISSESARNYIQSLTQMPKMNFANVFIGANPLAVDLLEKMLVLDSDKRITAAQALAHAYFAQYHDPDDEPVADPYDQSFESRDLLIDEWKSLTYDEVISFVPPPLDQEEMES

EGFR (human), sequence (P00533 whole entry, looked up): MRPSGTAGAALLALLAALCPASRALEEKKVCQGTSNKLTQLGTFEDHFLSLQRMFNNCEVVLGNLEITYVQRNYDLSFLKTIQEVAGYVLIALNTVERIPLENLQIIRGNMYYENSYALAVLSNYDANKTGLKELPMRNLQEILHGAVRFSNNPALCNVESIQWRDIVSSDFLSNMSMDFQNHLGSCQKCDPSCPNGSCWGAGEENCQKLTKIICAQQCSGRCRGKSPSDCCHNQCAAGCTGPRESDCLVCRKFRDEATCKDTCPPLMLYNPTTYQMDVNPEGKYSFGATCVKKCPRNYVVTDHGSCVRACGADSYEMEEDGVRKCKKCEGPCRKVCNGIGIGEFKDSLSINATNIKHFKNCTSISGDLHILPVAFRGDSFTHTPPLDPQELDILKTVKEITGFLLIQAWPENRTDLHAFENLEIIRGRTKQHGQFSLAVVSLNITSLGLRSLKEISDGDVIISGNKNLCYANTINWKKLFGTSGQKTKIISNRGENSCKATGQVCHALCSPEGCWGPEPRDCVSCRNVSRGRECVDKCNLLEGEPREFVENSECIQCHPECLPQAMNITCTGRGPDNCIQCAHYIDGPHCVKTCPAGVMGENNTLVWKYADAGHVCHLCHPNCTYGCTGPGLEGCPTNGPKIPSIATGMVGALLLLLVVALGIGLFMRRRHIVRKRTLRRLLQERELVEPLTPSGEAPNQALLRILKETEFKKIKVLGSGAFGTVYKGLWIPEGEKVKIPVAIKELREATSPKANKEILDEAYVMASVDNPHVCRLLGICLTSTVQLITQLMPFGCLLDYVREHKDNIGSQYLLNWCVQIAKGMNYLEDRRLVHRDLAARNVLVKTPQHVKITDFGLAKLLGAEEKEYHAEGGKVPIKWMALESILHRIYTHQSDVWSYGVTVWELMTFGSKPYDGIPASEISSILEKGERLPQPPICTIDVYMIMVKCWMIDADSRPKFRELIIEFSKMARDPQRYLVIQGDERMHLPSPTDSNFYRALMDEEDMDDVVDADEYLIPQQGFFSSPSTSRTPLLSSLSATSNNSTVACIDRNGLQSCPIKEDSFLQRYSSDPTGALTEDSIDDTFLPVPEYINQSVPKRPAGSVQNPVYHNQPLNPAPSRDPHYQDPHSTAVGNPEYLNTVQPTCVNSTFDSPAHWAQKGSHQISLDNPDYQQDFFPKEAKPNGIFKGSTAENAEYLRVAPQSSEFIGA
MAPK14 (human), sequence (Q16539 whole entry, looked up): as the sequence (Q16539 whole entry, looked up) above
ROCK2 (human), sequence (O75116 whole entry, looked up): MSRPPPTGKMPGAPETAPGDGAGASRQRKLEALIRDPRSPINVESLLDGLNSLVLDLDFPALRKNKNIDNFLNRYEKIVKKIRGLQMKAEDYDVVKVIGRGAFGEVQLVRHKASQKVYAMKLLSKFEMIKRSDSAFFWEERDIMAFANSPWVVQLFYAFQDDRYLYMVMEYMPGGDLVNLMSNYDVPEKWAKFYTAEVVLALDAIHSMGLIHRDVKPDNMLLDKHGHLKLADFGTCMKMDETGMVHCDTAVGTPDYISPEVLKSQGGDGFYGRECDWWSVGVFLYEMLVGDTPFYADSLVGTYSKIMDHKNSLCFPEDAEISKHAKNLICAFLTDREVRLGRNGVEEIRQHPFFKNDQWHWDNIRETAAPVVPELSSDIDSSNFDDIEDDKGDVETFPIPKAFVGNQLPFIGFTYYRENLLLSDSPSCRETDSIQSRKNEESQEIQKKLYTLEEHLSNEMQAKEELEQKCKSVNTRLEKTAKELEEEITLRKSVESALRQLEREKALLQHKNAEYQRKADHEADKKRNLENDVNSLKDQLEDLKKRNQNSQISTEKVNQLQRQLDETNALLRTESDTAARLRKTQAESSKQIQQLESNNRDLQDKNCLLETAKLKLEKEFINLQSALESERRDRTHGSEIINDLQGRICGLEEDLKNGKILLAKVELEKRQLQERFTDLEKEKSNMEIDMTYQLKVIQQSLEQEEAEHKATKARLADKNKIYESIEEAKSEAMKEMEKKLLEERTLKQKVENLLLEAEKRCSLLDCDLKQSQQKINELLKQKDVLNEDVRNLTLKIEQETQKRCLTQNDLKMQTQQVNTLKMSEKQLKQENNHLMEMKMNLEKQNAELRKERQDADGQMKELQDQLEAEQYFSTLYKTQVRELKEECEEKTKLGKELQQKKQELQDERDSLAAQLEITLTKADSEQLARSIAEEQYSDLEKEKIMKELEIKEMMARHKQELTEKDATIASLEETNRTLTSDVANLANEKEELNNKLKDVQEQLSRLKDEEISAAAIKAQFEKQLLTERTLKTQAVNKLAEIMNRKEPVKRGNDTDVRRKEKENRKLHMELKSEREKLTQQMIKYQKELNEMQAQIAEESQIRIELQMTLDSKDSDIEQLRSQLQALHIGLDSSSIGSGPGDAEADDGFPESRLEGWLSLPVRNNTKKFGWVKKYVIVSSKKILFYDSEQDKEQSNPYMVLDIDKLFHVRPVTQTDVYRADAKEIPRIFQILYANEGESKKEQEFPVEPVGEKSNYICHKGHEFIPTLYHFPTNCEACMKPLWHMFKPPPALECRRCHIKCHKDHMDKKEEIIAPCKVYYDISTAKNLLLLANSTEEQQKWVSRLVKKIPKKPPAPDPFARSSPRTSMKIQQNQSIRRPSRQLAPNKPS
EGFR (human), P00533 [WT], sequence (P00533 whole entry, looked up): as the sequence (P00533 whole entry, looked up) above

For the compound `Cc1c(NC(=O)OC[C@@H]2COCCN2)cn2ncnc(Nc3ccc4c(cnn4Cc4cccc(F)c4)c3)c12`, the IC50 (as a rule, the concentration at which inhibition is half-maximal) is 22 nM against EGFR (human) [1]; 900 nM at EGFR (human) [2]; 340 nM against EGFR (human) [3]; 750 nM against EGFR (human) [4]; 20 nM on EGFR (human) [5]. On EGFR (human) [6], `Nc1ccc2c(NCc3ccccc3)ncnc2c1` returned an IC50 of 1250 nM.

As to `Cn1c(SSc2c(C(=O)Nc3ccccc3)c3ccc(C(F)(F)F)cc3n2C)c(C(=O)Nc2ccccc2)c2cc(C(F)(F)F)ccc21`, the IC50 against EGFR (human) [7] was > 100000 nM. `CCN1CCN(CC(=O)Nc2ccc(-c3cccc4c(=O)cc(N5CCOCC5)oc34)c3sc4ccccc4c23)CC1`: the IC50 in [8] was < 1 nM. As for `CN(C)C/C=C/C(=O)Nc1cccc(C(=O)Nc2ccc(Nc3nccc(-c4c(-c5ccccc5)nn5ccccc45)n3)cc2)c1`, the IC50 on MAPK14 (human) [9] worked out at 63 nM; in assay [10] it was 21 nM; in assay [11], 24.9 nM. For the same compound, the Kd (in general, a measure of binding affinity in units of concentration) in assay [12] turned out to be 2.6 nM; in assay [13], 7 nM. `COc1cc(N2CCN(C(C)=O)CC2)ccc1Nc1ncc(Cl)c(-c2c[nH]c3ccccc23)n1` had an IC50 in assay [14] of 79 nM. Take `O=C(NCCN1CCCC1)c1cc2n(c1)CCc1c(NC(=O)c3ccccc3Cl)n[nH]c1-2`: the IC50 on EGFR (human) [15] amounted to 7870 nM.

For `CN1CCc2ccc(NC(=O)c3cccc(CNC(=O)c4ccc(-c5csnn5)cc4)c3)cc2C1`, the IC50 against ROCK2 (human) [16] and at ROCK2 (human) [17] was 4.6 nM each time. For the compound `O=c1ncn2nc(Sc3ccccc3)ccc2c1-c1c(Cl)cccc1Cl`, the IC50 against MAPK14 (human) [18] was determined as 3000 nM; against MAPK14 [19], 1300 nM. For the compound `O=C1CN=C2C=NC(Nc3ccc(N4CCNCC4)cc3)=NC2N1C1CCCC1` (centres undefined), the IC50 on CDK2 [20] turned out to be 610 nM; at CDK2 [21], 180 nM. As to `C[C@H]1COCCN1c1cc(C2(S(C)(=O)=O)CC2)nc(-c2ccc(NC(=O)Nc3cnn(C)c3)cc2)n1`, on PIK3CG;PIK3CA (human), the half-inhibitory concentration (IC50) worked out at 1040 nM. Compound `COc1cccc(Nc2ccnc(Nc3cccc(OC)c3)n2)c1` showed an IC50 in [22] of 7700 nM. `Oc1cccc(-c2nc3ccc(O)cc3s2)c1`: the inhibition (commonly the drop in the measured response relative to a control, in per cent) against EGFR (human) [23] turned out to be 4%. Compound `C=CC(=O)Nc1cccc(N2C(=O)N(Cc3ccccc3)Cc3cnc(Nc4ccc(N5CCN(C)CC5)cc4OC)nc32)c1` returned an IC50 in [24] of 0.7 nM. This lies in the sub-nanomolar range. Turning to `COc1ccc(/C=C/C(=O)Nc2cccc(Oc3cc(Nc4ccc(OCc5cccc(F)c5)c(Cl)c4)ncn3)c2)cc1OC`, the IC50 against EGFR (human) [25] was > 20000 nM.

For `O=C1Nc2ccc(Br)cc2/C1=C1/Nc2ccccc2C1=NO`, the IC50 was 460 nM against CDK2 (human) [26], 120 nM against CDK2 (human) [27] and > 100000 nM at EGFR (human) [28]. For `O=c1ccc2cnc(Nc3ccc(N4CCCCC4)cc3)nc2n1C1CCCO1` (centres undefined), the IC50 at CDK2 [29] turned out to be 285 nM; at CDK2 [21] it was 1900 nM. On to `CN1CCC(O)(c2nc(-c3ccc(F)cc3)c(-c3ccncc3)o2)CC1`, for which the ED50 (as a rule, the midpoint of the dose-response relation) with MAPK14 (rat) was 20 mg/kg/day. With `CN1CCN(c2ccc(Nc3ncc4cc(C#N)c(=O)n(C5CCCC5)c4n3)cc2)CC1`, the IC50 against CDK2 (human) [26] came to 97.3 nM; at PIK3CA (human), 1060 nM; against PIK3CB (Human), 759 nM; against PIK3CG (human), 1120 nM; against CDK2 (human) [30], 770 nM; at CDK2 (human) [31] it was 1350 nM. `O=c1ncn2nc(Sc3ccccc3)ccc2c1-c1ccccc1`: the IC50 against MAPK14 [32] was > 20000 nM.
